Structures are written as SMILES.

From US20250340581A1, “PAEONIFLORIN MONOHYDRATE CRYSTAL FORM A, PREPARATION METHOD THEREFOR, AND USE THEREOF” (SHANGHAI INSTITUTE OF MATERIA MEDICA.CHINESE ACADEMY OF …, priority 2023, published 2025) come the findings set out here.

What all share (format): physicochemical
A short description of data set [1]: Hygroscopicity test by dynamic moisture sorption (DVS). The conditions noted are these: for adsorbed moisture: 80% RH, 25° C., DVS. The procedure: DVS analysis: all dynamic moisture sorption analysis […] of this experiment were determined by DVS advantage model sorption instrument, British SMS company, relative humidity range: 0-95%, temperature: 25° C. Commercially available paeoniflorin (Aladdin Company, batch number K2011169, purity ≥98%) was used as the amorphous powder, and its X-ray powder diffraction comparison diagram with the crystal form A of the present invention is shown in FIG. 6, and the hygroscopicity analysis comparison diagram of paeoniflorin and the crystal form A of the present invention is shown in FIG. 7. […] The hygroscopicity of crystal form B was analyzed using DVS advantage adsorption instrument of SMS company in the UK, the amorphous form adsorbed 11.1% of water at 80% RH, showing hygroscopicity; Paeoniflorin crystal form B of the present invention adsorbed 2.22% of water at 80% RH, but its hygroscopicity was obviously different from that of crystal form A.

Data set [2] in a line: Accelerated stability in a stability box (40° C./75% RH). The settings on record: 15 days acceleration.
Data set [3] in a line: Thermal stability by TG and DSC. The procedure: DSC analysis: the method adopts a DSC 8500 model differential scanning calorimeter of PerkinElmer company, US. for detection, the atmosphere is nitrogen, and the heating speed is 10° C./min.
TG analysis: the method adopts a thermogravimetric analyzer Netzsch TG 209F3 model of German […] company, temperature range: 30-400° C., scan rate: 10° C./min, purge gas: 25 mL/min.

A short description of another data set: Solubility in water. The procedure: The crystal form A has good water solubility, the solubility in water is more than 20 mg/mL, and the crystal form A is easy to dissolve.

In turn, `CC12CC3(O)OC(O1)C1(COC(=O)c4ccccc4)C3CC21OC1OC(CO)C(O)C(O)C1O` (stereo not shown) [Paeoniflorin crystal form B] displayed an adsorbed moisture in data set [1] of 2.22%.
For `CC12CC3(O)OC(O1)C1(COC(=O)c4ccccc4)C3CC21OC1OC(CO)C(O)C(O)C1O` (stereo not shown) [crystal form A], the “physical stability (conversion to amorphous or other forms)” value in data set [2] is “did not convert to amorphous or other forms”. Also, the “phase transition and weight loss temperatures” value in data set [3] is “above 100 °C”. The compound also displayed a solubility in “Solubility in water” greater than 20 mg/mL. Further, the adsorbed moisture in data set [1] (listed as paeoniflorin monohydrate crystal form A) amounted to 0.3%. In addition, the “hygroscopicity (qualitative)” value in data set [1] (no wet agglomeration, powder has good fluidity) is reported as “small hygroscopicity”.
For the compound `CC12CC3(O)OC(O1)C1(COC(=O)c4ccccc4)C3CC21OC1OC(CO)C(O)C(O)C1O` (stereo not shown) [amorphous form, reference compound], the adsorbed moisture in data set [1] was 11.1%.

By solubility is commonly meant the concentration that dissolves in the medium under given conditions.
